Patent US9057929B2, “Quinolinium single crystals for use in nonlinear optics” (AJOU UNIVERSITY INDUSTRY-ACADEMIC COOPERATION FOUNDATION, priority 2011, dated 2015)
Like-named read-outs stand apart in the source and are kept apart here.

Assays:
[1] = Thermal properties by DSC and TGA at a scanning rate of 10° C./min (thermal weight-loss temperature Ti); type: physicochemical; details: for Ti (thermal weight-loss temperature), second number of the Tm/Ti cell: intercept of leading edge of weight loss with baseline
Protocol: As results of measurement of thermal properties of the quinolinium derivative according to the present invention using differential scanning calorimetry (DSC) and thermogravimetric analysis (TGA) at a scanning rate of 10° C./min, the thermal weight-loss temperature Ti was estimated as a temperature at the intercept of the leading edge of the weight loss by the baseline of TGA scans.

Solubility in methanol = assay: Solubility in methanol
Excerpt: Meanwhile, the solubility in methanol of the quinolinium derivative according to the present invention is illustrated in (a) of FIG. 6. […] The solid line in the graph is based on the known Van't Hoff thermodynamic equilibrium equation using an ideal solution.

| Compound | thermal stability of the crystal (FIG. 2) ([1]; TGA, 10° C./min) | Ti (thermal weight-loss temperature), second number of the Tm/Ti cell ([1]; TGA, 10° C./min) | solubility in methanol as a reaction solvent (Solubility in methanol; methanol, temperature not given) | solubility in methanol (Solubility in methanol) | thermal stability of the crystal (FIG. 2) [1] |
| --- | --- | --- | --- | --- | --- |
| CN(C)c1ccc(C=Cc2cc[n+](C)cc2)cc1.Cc1ccc(S(=O)(=O)[O-])cc1 [DAST, N,N-dimethylamino-N′-methylstilbazolium 4-methylbenzenesulfonate, reference compound] | 260 °C | 250/250 °C | – | – | – |
| COc1cc(C=Cc2ccc3ccccc3[n+]2C)ccc1O.[I+] [HMQ-I, 2-(4-hydroxy-3-methoxystyryl)-1-methylquinolinium iodine] | – | – | 0.14 g/100 g methanol | – | – |
| 2-(4-hydroxy-3-methoxystyryl)-1-methylquinolinium 4-methoxylbenzenesulfonate [HMQ-MBS] | – | 265/291 °C | – | 0.56 g/100 g methanol | – |
| CC1(C)CC(C=Cc2ccc(O)cc2)=CC(=C(C#N)C#N)C1 [OH1, 2-(3-(4-hydroxystyryl)-5,5-dimethylcyclohex-2-enylidene)malononitrile, reference compound] | – | 212/325 °C | – | – | – |
| COc1cc(C=Cc2ccc3ccccc3[n+]2C)ccc1O.Cc1ccc(S(=O)(=O)[O-])cc1 [HMQ-T, 2-(4-hydroxy-3-methoxystyryl)-1-methylquinolinium 4-methylbenzenesulfonate] | – | 273/297 °C | – | 0.89 g/100 g methanol | exceeding 290 °C |
